According to article PMC3344862, “Structural and Mutational Studies on Substrate Specificity and Catalysis of Salmonella typhimurium D-Cysteine Desulfhydrase” (PLoS ONE, 2012):

Legend:
[1] = molecular target: T1, StDCyD (Salmonella enterica, UniProt Q8ZNT7); assay: X-ray crystallography, co-crystallization; type: binding
T1 construct: gene dcyD; 36 kDa, dimer in solution; PLP on Lys51
T1 sequence (Q8ZNT7 1-328): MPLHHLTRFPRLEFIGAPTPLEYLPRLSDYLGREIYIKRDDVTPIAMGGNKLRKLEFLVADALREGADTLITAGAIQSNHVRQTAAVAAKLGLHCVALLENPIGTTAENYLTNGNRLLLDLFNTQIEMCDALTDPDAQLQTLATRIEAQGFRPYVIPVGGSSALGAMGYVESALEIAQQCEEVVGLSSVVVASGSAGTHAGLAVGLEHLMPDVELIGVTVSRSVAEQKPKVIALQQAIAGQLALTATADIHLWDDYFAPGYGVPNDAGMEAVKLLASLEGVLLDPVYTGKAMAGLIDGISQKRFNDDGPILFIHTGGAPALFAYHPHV

[2] = molecular target: T1, StDCyD; assay: X-ray crystallography, crystal soak; UV-visible spectra; type: binding; conditions: covalent; external aldimine with PLP; 10 mM, about 2 min soak
[3] = molecular target: T1, StDCyD; assay: X-ray crystallography; absorbance maximum […] nm; type: binding; conditions: covalent; Schiff base with Lys51
[4] = molecular target: T1, StDCyD; assay: X-ray crystallography, co-crystallization with DCS or LCS; type: binding; conditions: active site, not covalently linked to Lys51; formed from PLP by DCS (4D9B) or LCS (4D9C)
[5] = molecular target: T1, StDCyD; assay: thermal melting; type: binding; conditions: 10 mM pyruvate; Tm without and with ligand; data not shown
[6] = molecular target: T1, StDCyD; assay: X-ray crystallography, crystals soaked with D-Cys or βCDA; type: binding; conditions: second site 4.0-6.0 Å from the active site (Arg222, Ser221); formed from D-Cys (4D8W) or βCDA (4D92)
[7] = molecular target: the molecule itself; assay: SEC; analytical gel filtration of the purified protein

## NC1(C(=O)O)CC1 [ACC]
[1]; covalent, external aldimine with PLP, not a substrate
  X-ray crystallography, co-crystallization: StDCyD cocrystallized with ACC (PDB code: 4D96) revealed that the ligand binds as an external aldimine

## N[C@H](CO)C(=O)O [D-Ser]
[1]; active site, non-covalent, internal aldimine intact, poor substrate
  X-ray crystallography, co-crystallization: Structures of StDCyD-D-Ser (PDB code: 4D97) and StDCyD-L-Ser (PDB code: 4D99) complexes

## N[C@@H]1CONC1=O [DCS]
[2]
  X-ray crystallography, crystal soak; UV-visible spectra: Electron density observed at the active site was consistent with external aldimines of DCS or LCS

## N[C@@H](CO)C(=O)O [L-Ser]
[1]; active site, non-covalent, internal aldimine intact, not a substrate
  X-ray crystallography, co-crystallization: Structures of StDCyD-D-Ser (PDB code: 4D97) and StDCyD-L-Ser (PDB code: 4D99) complexes

## N[C@H]1CONC1=O [LCS]
[2]
  X-ray crystallography, crystal soak; UV-visible spectra: Electron density observed at the active site was consistent with external aldimines of DCS or LCS

## Cc1ncc(COP(=O)(O)O)c(C=O)c1O [PLP]
[3]
  X-ray crystallography; absorbance maximum 417 nm: PLP is bound by a Schiff base linkage to Lys51

## Cc1ncc(COP(=O)(O)O)c(CN)c1O [PMP]
[4]
  X-ray crystallography, co-crystallization with DCS or LCS: PMP is not covalently linked to ε-amino group of Lys51

## CC(=O)C(=O)O [pyruvate]
[5]
  Tm with ligand: 80 to 85 °C
[6]
  X-ray crystallography, crystals soaked with D-Cys or βCDA: The modeled pyruvate is held by hydrogen bonding with Arg222 and Ser221

B1: Salmonella typhimurium D-cysteine desulfhydrase (enzyme, UniProt Q8ZNT7 1-328, looked up)
chain: MPLHHLTRFPRLEFIGAPTPLEYLPRLSDYLGREIYIKRDDVTPIAMGGNKLRKLEFLVADALREGADTLITAGAIQSNHVRQTAAVAAKLGLHCVALLENPIGTTAENYLTNGNRLLLDLFNTQIEMCDALTDPDAQLQTLATRIEAQGFRPYVIPVGGSSALGAMGYVESALEIAQQCEEVVGLSSVVVASGSAGTHAGLAVGLEHLMPDVELIGVTVSRSVAEQKPKVIALQQAIAGQLALTATADIHLWDDYFAPGYGVPNDAGMEAVKLLASLEGVLLDPVYTGKAMAGLIDGISQKRFNDDGPILFIHTGGAPALFAYHPHV
modifications: PLP bound by a Schiff base linkage to Lys51
notes: residues 1-328; Cloned in pRSET C; no cleavage of the tag is described; Small domain residues 48-161, large domain residues 1-47 and 162-328; also called StDCyD; DCyD; source: E. coli BL21 (DE3) Rosetta, purified (Ni-NTA, size exclusion chromatography)
[7]
  stoichiometry N: 2
